Source: ChEMBL document CHEMBL1201862, “PubChem BioAssay data set” (2004)
The source made the active and inactive calls.

Legend:
Caspase-9 = Caspase-9 (Homo sapiens, UniProt P55211); test: caspase-9 enzyme inhibition, dose response, selectivity assay for caspase-6 inhibitor project, biochemical, fluorescence, plate reader, cherry-picked samples (AID 743293)
Caspase-3 = target: T1, Caspase-3 (Homo sapiens, UniProt P42574); test: SAR Analysis of small molecule inhibitors of Sentrin-specific proteases (SENPs) using a Caspase-3 Selectivity assay. [Related pubchem assays (depositor defined):AID2540, AID2599, AID434973, AID489001]; format: functional
T1 sequence (P42574 whole entry): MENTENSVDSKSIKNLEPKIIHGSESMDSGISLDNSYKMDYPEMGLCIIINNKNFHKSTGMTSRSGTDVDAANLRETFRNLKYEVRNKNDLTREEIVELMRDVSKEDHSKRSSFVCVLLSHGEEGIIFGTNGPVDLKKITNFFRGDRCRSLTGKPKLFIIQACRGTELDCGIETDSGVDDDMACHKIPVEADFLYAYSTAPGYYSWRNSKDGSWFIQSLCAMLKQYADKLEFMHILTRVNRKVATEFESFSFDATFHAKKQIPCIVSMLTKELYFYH

[1] = target: Dual specificity protein kinase CLK2 (Homo sapiens, UniProt P49760); format: functional
[2] = target: Tyrosine-protein kinase JAK2 (Homo sapiens, UniProt O60674); format: functional;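 also: JAK2 tested as one member of a kinase panel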
[3] = target: cGMP-dependent protein kinase 1 (Homo sapiens, UniProt Q13976); format: functional;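 also: value from a kinome panel screen with PRKG1 as the panel member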
[4] = target: 5'-AMP-activated protein kinase catalytic subunit alpha-1 (Homo sapiens, UniProt Q13131); format: functional
[5] = target: Protein kinase C delta type (Homo sapiens, UniProt Q05655); format: functional
[6] = target: ALK tyrosine kinase receptor (Homo sapiens, UniProt Q9UM73); format: functional;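 also: ALK tested as one member of a kinase panel screen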
[7] = target: Proto-oncogene tyrosine-protein kinase receptor Ret (Homo sapiens, UniProt P07949); format: functional;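 also: measured within a kinome-wide profiling panel, RET as the panel member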
[8] = target: Serine/threonine-protein kinase D2 (Homo sapiens, UniProt Q9BZL6); format: functional;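 also: measured against PRKD2 as one member of a kinome-wide kinase profiling panel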
[9] = target: Serine/threonine-protein kinase D3 (Homo sapiens, UniProt O94806); format: functional;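 also: determined within a kinase panel screen, with PRKCN as the panel member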
[10] = target: Mitogen-activated protein kinase 8 (Homo sapiens, UniProt P45983); format: functional;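 also: value comes from one member of a kinome-wide kinase profiling panel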
Aurora kinase A = Aurora kinase A (Homo sapiens, UniProt O14965); format: functional;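 also: value from the Navigating the Kinome kinase panel profiling, panel entry STK6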
[11] = target: Cell division cycle 7-related protein kinase (Homo sapiens, UniProt O00311); format: functional;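 also: value obtained from a kinome-wide kinase panel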
[12] = target: Tyrosine-protein kinase BTK (Homo sapiens, UniProt Q06187); format: functional
[13] = target: Casein kinase II subunit alpha (Homo sapiens, UniProt P68400); format: functional
[14] = target: Tyrosine-protein kinase Lyn (Homo sapiens, UniProt P07948); format: functional;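 also: lyn as one member of a kinase panel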
[15] = target: Homeodomain-interacting protein kinase 2 (Homo sapiens, UniProt Q9H2X6); format: functional;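 also: measured within a kinome-wide kinase profiling panel, HIPK2 being one panel member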
[16] = target: Protein-tyrosine kinase 2-beta (Homo sapiens, UniProt Q14289); format: functional
[17] = target: Serine/threonine-protein kinase pim-3 (Homo sapiens, UniProt Q86V86); format: functional;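 also: value obtained as one member of a broad kinase panel profiling effort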
[18] = target: Proto-oncogene tyrosine-protein kinase Src (Homo sapiens, UniProt P12931); format: functional;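 also: SRC entry within a kinome-wide kinase profiling panel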
[19] = target: Glycogen synthase kinase-3 alpha (Homo sapiens, UniProt P49840); format: functional;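 also: GSK3A result taken from a broad kinome-wide kinase panel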
[20] = target: Mitogen-activated protein kinase kinase kinase kinase 2 (Homo sapiens, UniProt Q12851); format: functional;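 also: measured as one member of a kinome-wide kinase panel, with MAP4K2 as the panel entry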
[21] = target: MAP kinase-interacting serine/threonine-protein kinase 2 (Homo sapiens, UniProt Q9HBH9); format: functional
[22] = target: Vascular endothelial growth factor receptor 2 (Homo sapiens, UniProt P35968); format: functional
Misshapen-like kinase 1 = Misshapen-like kinase 1 (Homo sapiens, UniProt Q8N4C8); format: functional;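 also: kinome panel screen with MINK as the panel member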
[23] = target: Dual specificity tyrosine-phosphorylation-regulated kinase 1B (Homo sapiens, UniProt Q9Y463); test: Navigating the Kinome. Panel member name: DYRK1B; format: functional
Focal adhesion kinase 1 = Focal adhesion kinase 1 (Homo sapiens, UniProt Q05397); format: functional;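 also: measured as one member of a kinome panel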
Aurora kinase B = Aurora kinase B (Homo sapiens, UniProt Q96GD4); format: functional
[24] = target: Tyrosine-protein kinase Fer (Homo sapiens, UniProt P16591); format: functional;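 also: FER tested as one member of a kinome panel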
[25] = target: Homeodomain-interacting protein kinase 4 (Homo sapiens, UniProt Q8NE63); format: functional
[26] = target: Cyclin-dependent kinase 1 (Homo sapiens, UniProt P06493); format: functional;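 also: Kinome-wide panel profiling, with the target listed as panel member CDC2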
[27] = target: Serine/threonine-protein kinase pim-2 (Homo sapiens, UniProt Q9P1W9); format: functional;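 also: value comes from a broad kinase panel profiling study in which PIM2 was one of the panel members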
[28] = target: Cyclin-dependent kinase 8 (Homo sapiens, UniProt P49336); test: Navigating the Kinome. Panel member name: CDK8; format: functional
[29] = target: Mitogen-activated protein kinase 12 (Homo sapiens, UniProt P53778); format: functional;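 also: measured as one member of a kinome-wide kinase profiling panel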
[30] = target: Lymphokine-activated killer T-cell-originated protein kinase (Homo sapiens, UniProt Q96KB5); format: functional;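 also: value comes from a kinase panel screen in which TOPK was one of the panel members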
[31] = target: Dual specificity tyrosine-phosphorylation-regulated kinase 1A (Homo sapiens, UniProt Q13627); format: functional;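 also: measured against DYRK1A as one member of a broad kinome profiling panel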
[32] = target: Tyrosine-protein kinase FRK (Homo sapiens, UniProt P42685); format: functional;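 also: FRK tested as one member of a kinome panel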

Sequence of cGMP-dependent protein kinase 1 (Q13976 whole entry): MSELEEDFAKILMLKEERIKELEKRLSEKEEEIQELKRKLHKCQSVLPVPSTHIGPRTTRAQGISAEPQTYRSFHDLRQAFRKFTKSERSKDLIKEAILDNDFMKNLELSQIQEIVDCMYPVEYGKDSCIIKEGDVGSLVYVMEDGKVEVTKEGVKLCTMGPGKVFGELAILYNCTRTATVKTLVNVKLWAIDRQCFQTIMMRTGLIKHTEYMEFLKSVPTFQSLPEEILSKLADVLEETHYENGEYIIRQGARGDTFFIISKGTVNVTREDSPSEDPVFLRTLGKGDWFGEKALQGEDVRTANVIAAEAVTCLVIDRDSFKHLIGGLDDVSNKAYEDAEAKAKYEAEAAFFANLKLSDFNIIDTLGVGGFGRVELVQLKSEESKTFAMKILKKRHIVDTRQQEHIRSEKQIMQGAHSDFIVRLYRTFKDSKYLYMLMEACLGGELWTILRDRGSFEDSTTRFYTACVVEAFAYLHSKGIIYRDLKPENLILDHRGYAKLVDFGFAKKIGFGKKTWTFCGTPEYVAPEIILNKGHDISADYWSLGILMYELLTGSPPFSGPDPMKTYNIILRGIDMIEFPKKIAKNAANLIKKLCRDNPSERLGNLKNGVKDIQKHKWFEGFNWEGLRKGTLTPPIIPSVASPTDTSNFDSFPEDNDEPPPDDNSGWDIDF
Sequence of Cell division cycle 7-related protein kinase (O00311 whole entry): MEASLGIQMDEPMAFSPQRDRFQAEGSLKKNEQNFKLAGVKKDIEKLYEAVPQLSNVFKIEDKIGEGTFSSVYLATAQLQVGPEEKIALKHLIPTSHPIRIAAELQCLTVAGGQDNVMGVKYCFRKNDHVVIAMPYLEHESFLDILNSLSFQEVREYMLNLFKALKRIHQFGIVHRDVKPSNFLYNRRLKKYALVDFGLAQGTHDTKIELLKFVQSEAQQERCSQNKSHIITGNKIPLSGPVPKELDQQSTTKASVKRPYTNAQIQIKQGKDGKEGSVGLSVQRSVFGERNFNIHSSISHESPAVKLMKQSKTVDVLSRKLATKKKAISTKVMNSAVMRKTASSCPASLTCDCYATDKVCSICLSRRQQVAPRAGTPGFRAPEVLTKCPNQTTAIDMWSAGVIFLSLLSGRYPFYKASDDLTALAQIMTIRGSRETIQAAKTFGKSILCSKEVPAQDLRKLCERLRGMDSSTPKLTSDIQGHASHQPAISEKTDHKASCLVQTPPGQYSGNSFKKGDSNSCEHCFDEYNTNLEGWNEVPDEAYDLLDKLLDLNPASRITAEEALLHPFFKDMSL
Sequence of Aurora kinase A (O14965 whole entry): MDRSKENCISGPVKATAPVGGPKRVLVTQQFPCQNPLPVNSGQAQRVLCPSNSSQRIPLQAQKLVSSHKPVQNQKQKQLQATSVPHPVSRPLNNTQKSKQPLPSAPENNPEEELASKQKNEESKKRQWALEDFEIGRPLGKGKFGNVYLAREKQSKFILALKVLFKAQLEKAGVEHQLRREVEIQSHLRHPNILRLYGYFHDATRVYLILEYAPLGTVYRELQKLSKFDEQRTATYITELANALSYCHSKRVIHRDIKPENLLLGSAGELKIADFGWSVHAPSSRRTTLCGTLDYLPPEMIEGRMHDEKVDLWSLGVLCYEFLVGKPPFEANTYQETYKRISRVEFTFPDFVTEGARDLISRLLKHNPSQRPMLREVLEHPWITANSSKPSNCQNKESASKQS
Sequence of Mitogen-activated protein kinase kinase kinase kinase 2 (Q12851 whole entry): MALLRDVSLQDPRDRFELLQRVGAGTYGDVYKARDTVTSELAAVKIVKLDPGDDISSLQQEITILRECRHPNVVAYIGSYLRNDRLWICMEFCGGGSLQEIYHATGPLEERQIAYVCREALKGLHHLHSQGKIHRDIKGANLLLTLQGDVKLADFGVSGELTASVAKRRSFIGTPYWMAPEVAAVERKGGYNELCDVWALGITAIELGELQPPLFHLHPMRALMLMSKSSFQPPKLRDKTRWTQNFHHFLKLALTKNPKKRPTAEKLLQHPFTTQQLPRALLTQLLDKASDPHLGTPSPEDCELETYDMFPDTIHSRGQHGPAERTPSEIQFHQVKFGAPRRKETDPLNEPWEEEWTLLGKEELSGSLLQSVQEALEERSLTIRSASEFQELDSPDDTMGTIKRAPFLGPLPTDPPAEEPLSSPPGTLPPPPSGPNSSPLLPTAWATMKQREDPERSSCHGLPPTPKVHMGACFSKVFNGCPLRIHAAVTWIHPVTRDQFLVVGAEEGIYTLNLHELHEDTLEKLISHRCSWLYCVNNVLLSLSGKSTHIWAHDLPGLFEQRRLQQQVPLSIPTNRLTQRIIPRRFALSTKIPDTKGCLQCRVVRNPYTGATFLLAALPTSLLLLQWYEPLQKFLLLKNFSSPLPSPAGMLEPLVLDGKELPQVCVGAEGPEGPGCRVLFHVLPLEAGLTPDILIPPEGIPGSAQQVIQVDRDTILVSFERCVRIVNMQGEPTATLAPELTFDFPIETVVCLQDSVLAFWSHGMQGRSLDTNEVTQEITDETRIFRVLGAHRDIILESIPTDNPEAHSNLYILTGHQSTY
Sequence of Dual specificity protein kinase CLK2 (P49760 whole entry): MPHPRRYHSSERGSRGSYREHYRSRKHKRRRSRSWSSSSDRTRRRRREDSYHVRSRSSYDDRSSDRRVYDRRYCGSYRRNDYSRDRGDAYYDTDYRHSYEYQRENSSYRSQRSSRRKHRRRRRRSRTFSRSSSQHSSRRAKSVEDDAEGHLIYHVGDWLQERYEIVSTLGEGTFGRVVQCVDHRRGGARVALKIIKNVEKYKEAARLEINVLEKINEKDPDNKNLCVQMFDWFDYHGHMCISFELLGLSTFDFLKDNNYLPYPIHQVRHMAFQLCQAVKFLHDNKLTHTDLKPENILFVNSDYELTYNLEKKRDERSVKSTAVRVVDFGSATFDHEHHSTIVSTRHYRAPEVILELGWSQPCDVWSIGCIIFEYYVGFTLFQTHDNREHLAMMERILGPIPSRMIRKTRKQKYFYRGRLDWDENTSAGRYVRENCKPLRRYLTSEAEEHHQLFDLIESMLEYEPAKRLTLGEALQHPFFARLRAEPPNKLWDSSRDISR
Sequence of Protein-tyrosine kinase 2-beta (Q14289 whole entry): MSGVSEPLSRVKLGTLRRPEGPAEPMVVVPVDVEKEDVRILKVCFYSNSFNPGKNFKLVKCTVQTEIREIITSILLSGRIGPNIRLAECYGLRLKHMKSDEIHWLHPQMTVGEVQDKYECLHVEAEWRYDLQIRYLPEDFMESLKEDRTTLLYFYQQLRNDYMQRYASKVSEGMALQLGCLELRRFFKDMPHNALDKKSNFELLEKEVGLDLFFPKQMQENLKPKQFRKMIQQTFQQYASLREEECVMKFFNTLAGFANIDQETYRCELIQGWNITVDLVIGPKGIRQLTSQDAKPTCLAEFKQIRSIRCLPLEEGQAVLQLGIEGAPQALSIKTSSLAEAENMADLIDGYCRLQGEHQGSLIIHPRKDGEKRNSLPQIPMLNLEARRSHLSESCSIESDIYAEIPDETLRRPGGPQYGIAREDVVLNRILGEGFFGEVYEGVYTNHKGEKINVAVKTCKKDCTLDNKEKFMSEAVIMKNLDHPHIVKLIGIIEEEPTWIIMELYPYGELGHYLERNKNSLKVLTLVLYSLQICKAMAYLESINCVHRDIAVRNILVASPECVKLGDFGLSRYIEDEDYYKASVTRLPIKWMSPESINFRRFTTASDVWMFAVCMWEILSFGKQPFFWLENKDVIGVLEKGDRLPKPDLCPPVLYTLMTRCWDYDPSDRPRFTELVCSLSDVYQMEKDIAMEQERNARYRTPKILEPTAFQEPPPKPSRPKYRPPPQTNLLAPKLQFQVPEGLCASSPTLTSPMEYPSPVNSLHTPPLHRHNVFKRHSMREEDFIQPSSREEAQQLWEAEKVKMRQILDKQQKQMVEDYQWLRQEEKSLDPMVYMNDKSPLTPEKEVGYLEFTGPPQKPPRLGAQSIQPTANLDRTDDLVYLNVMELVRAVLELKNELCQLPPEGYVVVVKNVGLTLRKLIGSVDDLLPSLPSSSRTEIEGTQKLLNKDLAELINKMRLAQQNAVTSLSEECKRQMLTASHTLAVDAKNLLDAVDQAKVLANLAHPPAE
Sequence of Tyrosine-protein kinase Lyn (P07948 whole entry): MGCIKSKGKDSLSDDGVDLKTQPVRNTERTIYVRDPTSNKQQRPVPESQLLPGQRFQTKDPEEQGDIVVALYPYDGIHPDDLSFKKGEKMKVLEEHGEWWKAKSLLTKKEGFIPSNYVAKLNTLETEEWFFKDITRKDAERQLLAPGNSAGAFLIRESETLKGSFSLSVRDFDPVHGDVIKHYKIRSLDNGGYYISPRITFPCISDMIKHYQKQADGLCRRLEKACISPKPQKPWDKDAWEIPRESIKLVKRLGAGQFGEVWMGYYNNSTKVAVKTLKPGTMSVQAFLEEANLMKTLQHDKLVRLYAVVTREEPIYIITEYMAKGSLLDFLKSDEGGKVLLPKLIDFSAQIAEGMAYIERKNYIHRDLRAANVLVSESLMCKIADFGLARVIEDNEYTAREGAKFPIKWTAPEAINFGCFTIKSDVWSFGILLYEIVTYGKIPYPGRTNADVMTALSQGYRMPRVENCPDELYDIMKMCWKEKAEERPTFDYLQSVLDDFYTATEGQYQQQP

In the case of `Cc1c(NC(=O)C(C)OC(=O)c2ccc([N+](=O)[O-])s2)c(=O)n(-c2ccccc2)n1C` (stereo not drawn), the AC50 (Caspase-9) is reported as 41.3 µM (active).
`COc1cc(Br)c(C(=O)c2nccc3cc(OC)c(OC)cc23)cc1OC` was tested, and the IC50 (Caspase-3) was 23.9 µM (active).
For `CC(N)C1CCC(C(=O)Nc2ccnc3[nH]ccc23)CC1` (stereo not drawn), the Ki [1] was 1.26 µM (active), the Ki [2] was > 1.58 µM (inactive) and the Ki [3] was 631 nM (active). The Ki [4] was > 2.51 µM (inactive), the Ki [5] was 158 nM (active) and the Ki [6] was 2 µM (active). For the same compound, the Ki [7] was > 2.51 µM (inactive), the Ki [8] was 1 µM (active) and the Ki [9] was 398 nM (active). For the same compound, the Ki [10] was > 3.98 µM (inactive), the Ki (Aurora kinase A) was > 2 µM (inactive) and the Ki [11] was > 1.26 µM (inactive). The Ki [12] was > 3.98 µM (inactive), the Ki [13] was > 6.31 µM (inactive) and the Ki [14] was > 1.58 µM (inactive). The Ki [15] was > 3.16 µM (inactive), the Ki [16] was > 1.58 µM (inactive) and the Ki [17] was > 7.94 µM (inactive). For the same compound, the Ki [18] was > 2 µM (inactive), the Ki [19] was > 6.31 µM (inactive) and the Ki [20] was > 2 µM (inactive). For the same compound, the Ki [21] was 2 µM (active), the Ki [22] was > 5.01 µM (inactive) and the Ki (Misshapen-like kinase 1) was 3.16 µM (active). The Ki [23] was 158 nM (active), the Ki (Focal adhesion kinase 1) was > 3.16 µM (inactive) and the Ki (Aurora kinase B) was 1 µM (active). The Ki [24] was > 1.58 µM (inactive), the Ki [25] was > 7.94 µM (inactive) and the Ki [26] was 631 nM (active). The Ki [27] was > 1.58 µM (inactive), the Ki [28] was 501 nM (active) and the Ki [29] was > 6.31 µM (inactive). The Ki [30] was 5.01 µM (active), the Ki [31] was > 1.26 µM (inactive) and the Ki [32] was > 2.51 µM (inactive).
